Test results taken from patent US9518018B2, “3-alkoxy, thioalkyl and amino-4-amino-6-(substituted)picolinates and their use as herbicides” (Dow AgroSciences LLC, priority 2011, dated 2016).
Where two headings read alike, the source gives them in different places.

Experiments:
[1] = test system: ABUTH: velvetleaf (Abutilon theophrasti); experiment: Post-Emergent Test I herbicidal activity; type: in vivo
In short: (§1)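 Greenhouse-grown seedlings (peat-based mix, pH 6.0–6.8; ~15 h photoperiod, 23–29 °C day) were sprayed post-emergence at first/second true-leaf stage with compound in acetone/DMSO/aqueous crop-oil–surfactant carrier at 187 L/ha, using a twofold rate series. Injury was scored visually after 14 d (0–100%); GR20/GR50/GR80 derived by probit analysis.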

[2] = test system: CHEAL: lambsquarters (Chenopodium album); experiment: Post-Emergent Test I herbicidal activity; type: in vivo
In short: as §1

[3] = test system: CYPES: yellow nutsedge (Cyperus esculentus); experiment: Post-Emergent Test I herbicidal activity; type: in vivo; settings: post-emergence, 336 h, Table 3, 140 g ai/ha, read-out: Visual Growth Reduction (%)-14 Days after Application CYPES
In short: as §1

[4] = test system: ECHCG: barnyardgrass (Echinochloa crus-galli); experiment: Post-Emergent Test I herbicidal activity; type: in vivo; settings: post-emergence, 336 h, Table 3, 140 g ai/ha, read-out: Visual Growth Reduction (%)-14 Days after Application ECHCG
In short: (§2)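 Seedlings are kept at 23–29 °C day / 22–28 °C night with ~15 h light and subirrigated after spraying to avoid wash-off. Compound in a crop-oil concentrate and Triton X-155 carrier is applied at 187 L/ha; 14-d visual injury feeds probit-derived growth-reduction doses (GR20/50/80).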

[5] = test system: EPHHL: wild poinsettia (Euphorbia heterophylla); experiment: Post-Emergent Test I herbicidal activity; type: in vivo; settings: post-emergence, 336 h, Table 3, 140 g ai/ha, read-out: Visual Growth Reduction (%)-14 Days after Application EPHHL
In short: as §1

[6] = test system: ORYSA: rice (Oryza sativa); experiment: Post-Emergent Test I herbicidal activity; type: in vivo; settings: post-emergence, 336 h, Table 3, 140 g ai/ha, read-out: Visual Growth Reduction (%)-14 Days after Application ORYSA
In short: as §2

[7] = test system: POLCO: buckwheat, wild (Polygonum convolvulus); experiment: Post-Emergent Test I herbicidal activity; type: in vivo
In short: as §1

[8] = test system: TRZAS: wheat, spring (Triticum aestivum); experiment: Post-Emergent Test I herbicidal activity; type: in vivo
In short: as §2

ZEAMX: corn (Zea mays) = experiment: Post-Emergent Test I herbicidal activity; type: in vivo
In short: as §1

[9] = Table 4, growth reduction of 20% of plant growth, 14 days after application, probit analysis
[10] = Table 4, growth reduction of 50% of plant growth, 14 days after application, probit analysis
[11] = Table 4, growth reduction of 80% of plant growth, 14 days after application, probit analysis

COc1c(N)cc(-c2ccc(Cl)cc2)nc1C(=O)O [Compound 46] showed a pest or weed control at 140 g/ha ([1]; Abutilon theophrasti, post-emergence, 336 h, Table 3, 140 g ai/ha, read-out: Visual Growth Reduction (%)-14 Days after Application ABUTH) of 100%, a pest or weed control at 17.5 g/ha ([1]; Abutilon theophrasti, post-emergence, 336 h, Table 4, 17.5 g ai/ha, read-out: Visual Growth Reduction (%)-14 Days after Application ABUTH) of 80% and a pest or weed control at 35 g/ha ([1]; Abutilon theophrasti, post-emergence, 336 h, Table 4, 35 g ai/ha, read-out: Visual Growth Reduction (%)-14 Days after Application ABUTH) of 85%. It also gave a pest or weed control at 70 g/ha ([1]; Abutilon theophrasti, post-emergence, 336 h, Table 4, 70 g ai/ha, read-out: Visual Growth Reduction (%)-14 Days after Application ABUTH) of 95%, a pest or weed control at 140 g/ha ([1]; Abutilon theophrasti, post-emergence, 336 h, Table 4, 140 g ai/ha, read-out: Visual Growth Reduction (%)-14 Days after Application ABUTH) of 100% and a pest or weed control at 280 g/ha ([1]; Abutilon theophrasti, post-emergence, 336 h, Table 4, 280 g ai/ha, read-out: Visual Growth Reduction (%)-14 Days after Application ABUTH) of 100%. For the same molecule, the “GR20 ABUTH” value [1, 9] was under 17.5 g ai/ha, the “GR50 ABUTH” value [1, 10] was under 17.5 g ai/ha and the “GR80 ABUTH” value [1, 11] was 19.7 g ai/ha. The pest or weed control at 140 g/ha ([2]; Chenopodium album, post-emergence, 336 h, Table 3, 140 g ai/ha, read-out: Visual Growth Reduction (%)-14 Days after Application CHEAL) was 100%, the pest or weed control at 17.5 g/ha ([2]; Chenopodium album, post-emergence, 336 h, Table 4, 17.5 g ai/ha, read-out: Visual Growth Reduction (%)-14 Days after Application CHEAL) was 90% and the pest or weed control at 35 g/ha ([2]; Chenopodium album, post-emergence, 336 h, Table 4, 35 g ai/ha, read-out: Visual Growth Reduction (%)-14 Days after Application CHEAL) was 95%. For the same molecule, the pest or weed control at 70 g/ha ([2]; Chenopodium album, post-emergence, 336 h, Table 4, 70 g ai/ha, read-out: Visual Growth Reduction (%)-14 Days after Application CHEAL) was 100%, the pest or weed control at 280 g/ha ([2]; Chenopodium album, post-emergence, 336 h, Table 4, 280 g ai/ha, read-out: Visual Growth Reduction (%)-14 Days after Application CHEAL) was 100% and the “Visual Growth Reduction (%)-14 Days after Application CHEAL” value ([2]; Table 4, 140 g ai/ha) was 100%. For the same molecule, the “GR20 CHEAL” value [2, 9] was under 17.5 g ai/ha, the “GR50 CHEAL” value [2, 10] was under 17.5 g ai/ha and the “GR80 CHEAL” value [2, 11] was under 17.5 g ai/ha. The pest or weed control at 140 g/ha [3] was 0%, the pest or weed control at 140 g/ha [4] was 15% and the pest or weed control at 140 g/ha [5] was 100%. For the same molecule, the pest or weed control at 140 g/ha [6] was 0%, the “Visual Growth Reduction (%)-14 Days after Application POLCO” value ([7]; Table 4, 17.5 g ai/ha) was 80% and the “Visual Growth Reduction (%)-14 Days after Application POLCO” value ([7]; Table 4, 35 g ai/ha) was 90%. For the same molecule, the “Visual Growth Reduction (%)-14 Days after Application POLCO” value ([7]; Table 4, 70 g ai/ha) was 100%, the “Visual Growth Reduction (%)-14 Days after Application POLCO” value ([7]; Table 4, 140 g ai/ha) was 100% and the “Visual Growth Reduction (%)-14 Days after Application POLCO” value ([7]; Table 4, 280 g ai/ha) was 100%. For the same molecule, the “GR20 POLCO” value [7, 9] was under 17.5 g ai/ha, the “GR50 POLCO” value [7, 10] was under 17.5 g ai/ha and the “GR80 POLCO” value [7, 11] was 18.6 g ai/ha. For the same molecule, the “Visual Growth Reduction (%)-14 Days after Application TRZAS” value ([8]; Table 4, 17.5 g ai/ha) was 15%, the “Visual Growth Reduction (%)-14 Days after Application TRZAS” value ([8]; Table 4, 35 g ai/ha) was 20% and the “Visual Growth Reduction (%)-14 Days after Application TRZAS” value ([8]; Table 4, 70 g ai/ha) was 40%. For the same molecule, the “Visual Growth Reduction (%)-14 Days after Application TRZAS” value ([8]; Table 4, 140 g ai/ha) was 70%, the “Visual Growth Reduction (%)-14 Days after Application TRZAS” value ([8]; Table 4, 280 g ai/ha) was 75% and the “GR20 TRZAS” value [8, 9] was 27.1 g ai/ha. The “GR50 TRZAS” value [8, 10] was 91.7 g ai/ha, the “GR80 TRZAS” value [8, 11] was 310 g ai/ha and the “GR20 ZEAMX” value (ZEAMX: corn (Zea mays); [9]) was over 280 g ai/ha. For the same molecule, the “GR50 ZEAMX” value (ZEAMX: corn (Zea mays); [10]) was over 280 g ai/ha, the “GR80 ZEAMX” value (ZEAMX: corn (Zea mays); [11]) was over 280 g ai/ha and the pest or weed control at 140 g/ha (ZEAMX: corn (Zea mays); Zea mays, post-emergence, 336 h, Table 3, 140 g ai/ha, read-out: Visual Growth Reduction (%)-14 Days after Application ZEAMX) was 0%. For the same molecule, the pest or weed control at 17.5 g/ha (ZEAMX: corn (Zea mays); Zea mays, post-emergence, 336 h, Table 4, 17.5 g ai/ha, read-out: Visual Growth Reduction (%)-14 Days after Application ZEAMX) was 0%, the pest or weed control at 35 g/ha (ZEAMX: corn (Zea mays); Zea mays, post-emergence, 336 h, Table 4, 35 g ai/ha, read-out: Visual Growth Reduction (%)-14 Days after Application ZEAMX) was 0% and the pest or weed control at 70 g/ha (ZEAMX: corn (Zea mays); Zea mays, post-emergence, 336 h, Table 4, 70 g ai/ha, read-out: Visual Growth Reduction (%)-14 Days after Application ZEAMX) was 0%. It also gave a pest or weed control at 140 g/ha (ZEAMX: corn (Zea mays); Zea mays, post-emergence, 336 h, Table 4, 140 g ai/ha, read-out: Visual Growth Reduction (%)-14 Days after Application ZEAMX) of 0%, a pest or weed control at 280 g/ha (ZEAMX: corn (Zea mays); Zea mays, post-emergence, 336 h, Table 4, 280 g ai/ha, read-out: Visual Growth Reduction (%)-14 Days after Application ZEAMX) of 0% and a melting point of 165 °C.
